Source: patent publication US10563263B2, “Genetic polymorphisms associated with statin response and cardiovascular diseases, methods of detection and uses thereof” (CELERA CORPORATION, priority 2010, dated 2020)

System: CHD
Experiment: Meta-analysis of CARE and WOSCOPS combined, synergy index, CHD endpoint
Assay type: in vivo, human
Source text: Tables 4-5 provide meta-analyses of CARE and WOSCOPS combined (2nd section of each table) for two endpoints (CHD and CVD) and three genetic models (dominant, recessive, and additive), as well as logistic regression analyses of CARE (3rd section of each table) and WOSCOPS (4th section of each table) individually.
Tables 12 and 17 provide results of meta-analysis of the CARE and WOSCOPS sample sets combined by direct genotyping and by imputing genotypes.
“P” indicates the p-value, and “P(R)” (or “P.R.”) indicates the p-value random effect. Both of these are p-values corresponding to a statistical test of whether the combined synergy index is equal to one but use different assumptions to derive the p-value. “P” is calculated using a fixed effects model, and “P(R)” is calculated using a random effects model.
“OR” indicates the odds ratio (synergy index) calculated from a fixed effects model, and “OR(R)” (or “OR.R.”) indicates the odds ratio (synergy index) calculated from a random effects model.

[1] = rs10105871 allele C DOMINANT Imputed
[2] = rs10116807 allele A GENOTYPIC Imputed
[3] = rs11178575 allele C GENOTYPIC Imputed
[4] = rs11178575 allele C RECESSIVE Imputed
[5] = rs11178577 allele T GENOTYPIC Imputed
[6] = rs11178577 allele T RECESSIVE Imputed
[7] = rs11178583 allele A DOMINANT Imputed
[8] = rs11178589 allele T DOMINANT Imputed
[9] = rs11178594 allele C DOMINANT Imputed
[10] = rs11178602 allele T DOMINANT Imputed
[11] = rs11178648 allele T DOMINANT Imputed
[12] = rs11198877 allele T DOMINANT Imputed
[13] = rs11198942 allele T DOMINANT Imputed
[14] = rs11221075 allele A ADDITIVE Imputed
[15] = rs11242020 allele T DOMINANT Imputed
[16] = rs11242021 allele T DOMINANT Imputed
[17] = rs11242022 allele T DOMINANT Imputed
[18] = rs11242023 allele T DOMINANT Imputed
[19] = rs11576627 allele T ADDITIVE Imputed
[20] = rs11576627 allele T DOMINANT Imputed
[21] = rs11602189 allele A DOMINANT Imputed
[22] = rs11605163 allele A DOMINANT Imputed
[23] = rs11615214 allele G ADDITIVE Imputed
[24] = rs11615214 allele G GENOTYPIC Imputed
[25] = rs11642394 allele C DOMINANT Imputed
[26] = rs11644943 allele A ADDITIVE Imputed
[27] = rs11656608 allele T DOMINANT Imputed
[28] = rs11661309 allele A ADDITIVE Imputed
[29] = rs11661309 allele A DOMINANT Imputed
[30] = rs11666131 allele A ADDITIVE Imputed

## CC[C@H](C)C(=O)O[C@H]1C[C@H](O)C=C2C=C[C@H](C)[C@H](CC[C@@H](O)C[C@@H](O)CC(=O)O)[C@H]21 [Pravastatin, pravastatin]
rs10067895 allele A DOMINANT Imputed
  OR(R): 0.5759
rs10088505 allele A vs G (ref)
  Meta-analysis OR: 1.61
rs10088524, allele A1 G (non-ref), A2 A (ref), endpoint/model not given
  Meta-analysis OR: 1.57
rs10103297, allele A1 A (non-ref), A2 G (ref), endpoint/model not given
  Meta-analysis OR: 2.03
[1]
  OR: 1.6092
  OR(R): 1.6092
[2]
  OR: 3.0952
  OR(R): 3.0952
rs10120126 allele G vs A (ref)
  Meta-analysis OR: 0.51
rs10189905 allele C vs A (ref)
  Meta-analysis OR: 0.52
rs10500736 allele G vs A (ref)
  Meta-analysis OR: 0.57
rs10517923 allele A vs G (ref)
  Meta-analysis OR: 1.61
rs10814422 allele G vs A (ref)
  Meta-analysis OR: 0.57
rs10849442 allele A vs G (ref)
  Meta-analysis OR: 0.57
rs10875941, allele A1 G (non-ref), A2 A (ref), endpoint/model not given
  Meta-analysis OR: 0.63
rs10973013 allele A vs G (ref)
  Meta-analysis OR: 0.55
rs11076320 allele C vs A (ref)
  Meta-analysis OR: 0.65
rs11082492 allele A vs C (ref)
  Meta-analysis OR: 1.55
[3]
  OR: 1.8735
  OR(R): 1.8735
[4]
  OR: 1.8848
  OR(R): 1.8848
[5]
  OR: 1.87
  OR(R): 1.87
[6]
  OR: 1.8884
  OR(R): 1.8884
[7]
  OR: 0.5918
  OR(R): 0.5918
[8]
  OR: 0.6108
  OR(R): 0.6108
[9]
  OR: 0.5951
  OR(R): 0.5951
[10]
  OR: 0.5942
  OR(R): 0.5942
[11]
  OR: 0.576
  OR(R): 0.576
[12]
  OR: 1.6068
  OR(R): 1.5927
[13]
  OR: 1.6276
  OR(R): 1.6227
[14]
  OR: 0.6561
  OR(R): 0.6561
[15]
  OR: 0.5675
  OR(R): 0.5675
[16]
  OR: 0.5753
  OR(R): 0.5753
[17]
  OR: 0.5805
  OR(R): 0.5805
[18]
  OR: 0.5807
  OR(R): 0.5807
[19]
  OR: 1.6268
  OR(R): 1.6268
[20]
  OR: 1.7055
  OR(R): 1.7055
[21]
  OR: 0.6007
  OR(R): 0.6007
[22]
  OR: 2.1075
  OR(R): 2.1075
[23]
  OR: 0.6853
  OR(R): 0.6853
[24]
  OR: 0.4648
  OR(R): 0.4738
[25]
  OR: 1.4572
  OR(R): 1.4572
[26]
  OR: 1.4247
  OR(R): 1.4247
[27]
  OR: 0.6695
  OR(R): 0.6695
[28]
  OR: 0.6163
  OR(R): 0.6163
[29]
  OR: 0.5852
  OR(R): 0.5852
[30]
  OR: 1.5364
  OR(R): 1.5364
rs11743355 allele C ADDITIVE Imputed
  OR: 0.1796
